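How tested: cells in 96-well plates exposed to compound for 48 hours at five concentrations. TGI is the concentration that stops growth completely.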
How the values were obtained:
Assay in all cases: NCI-60 cell line screen, 48 h
786-0 renal = test system: 786-0 renal
A498 renal = test system: A498 renal
A549 NSCLC = test system: A549 NSCLC
ACHN renal = test system: ACHN renal
BT-549 breast = test system: BT-549 breast
CAKI-1 renal = test system: CAKI-1 renal
CCRF-CEM leukemia = test system: CCRF-CEM leukemia
COLO 205 colon = test system: COLO 205 colon
DU-145 prostate = test system: DU-145 prostate
EKVX NSCLC = test system: EKVX NSCLC
HCC-2998 colon = test system: HCC-2998 colon
HCT-116 colon = test system: HCT-116 colon
HCT-15 colon = test system: HCT-15 colon
HOP-62 NSCLC = test system: HOP-62 NSCLC
HOP-92 NSCLC = test system: HOP-92 NSCLC
KM12 colon = test system: KM12 colon
LOX IMVI melanoma = test system: LOX IMVI melanoma
M14 melanoma = test system: M14 melanoma
MALME-3M melanoma = test system: MALME-3M melanoma
MCF7 breast = test system: MCF7 breast
MDA-MB-231 breast = test system: MDA-MB-231 breast
MDA-MB-435 = test system: MDA-MB-435
NCI-H226 lung = test system: NCI-H226 lung
NCI-H23 lung = test system: NCI-H23 lung
NCI-H460 lung = test system: NCI-H460 lung
NCI/ADR-RES ovarian = test system: NCI/ADR-RES ovarian
OVCAR-3 ovarian = test system: OVCAR-3 ovarian
OVCAR-4 ovarian = test system: OVCAR-4 ovarian
OVCAR-5 ovarian = test system: OVCAR-5 ovarian
OVCAR-8 ovarian = test system: OVCAR-8 ovarian
PC-3 prostate = test system: PC-3 prostate
RPMI-8226 leukemia = test system: RPMI-8226 leukemia
RXF 393 renal = test system: RXF 393 renal
SF-268 CNS = test system: SF-268 CNS
SF-295 CNS = test system: SF-295 CNS
SF-539 CNS = test system: SF-539 CNS
SK-MEL-2 melanoma = test system: SK-MEL-2 melanoma
SK-MEL-28 melanoma = test system: SK-MEL-28 melanoma
SK-MEL-5 melanoma = test system: SK-MEL-5 melanoma
SK-OV-3 ovarian = test system: SK-OV-3 ovarian
SNB-19 CNS = test system: SNB-19 CNS
SNB-75 CNS = test system: SNB-75 CNS
SW-620 colon = test system: SW-620 colon
T-47D breast = test system: T-47D breast
TK-10 renal = test system: TK-10 renal
U251 CNS = test system: U251 CNS
UACC-257 melanoma = test system: UACC-257 melanoma
UACC-62 melanoma = test system: UACC-62 melanoma
UO-31 renal = test system: UO-31 renal

Measured: TGI

Cc1ccc(C(C2C(=O)N(C)C(=O)N(C)C2=O)C(F)(F)C(=O)N(C)C)cc1 (centres undefined)
> 100 µM: 786-0 renal | A498 renal | A549 NSCLC | ACHN renal | BT-549 breast | CAKI-1 renal | CCRF-CEM leukemia | COLO 205 colon | DU-145 prostate | EKVX NSCLC | HCC-2998 colon | HCT-116 colon | HCT-15 colon | HOP-62 NSCLC | HOP-92 NSCLC | KM12 colon | LOX IMVI melanoma | M14 melanoma | MALME-3M melanoma | MCF7 breast | MDA-MB-231 breast | MDA-MB-435 | NCI-H226 lung | NCI-H23 lung | NCI-H460 lung | NCI/ADR-RES ovarian | OVCAR-3 ovarian | OVCAR-4 ovarian | OVCAR-5 ovarian | OVCAR-8 ovarian | PC-3 prostate | RPMI-8226 leukemia | RXF 393 renal | SF-268 CNS | SF-295 CNS | SF-539 CNS | SK-MEL-2 melanoma | SK-MEL-28 melanoma | SK-MEL-5 melanoma | SK-OV-3 ovarian | SNB-19 CNS | SNB-75 CNS | SW-620 colon | T-47D breast | TK-10 renal | U251 CNS | UACC-257 melanoma | UACC-62 melanoma | UO-31 renal

Source: PubChem BioAssay (NCI)
